The source made the active and inactive calls. The rule behind the calls is not given here.
Tested on: A 172
Test: Cytotoxicity against human A172 cells assessed as reduction in cell viability at 5 to 10 uM incubated for 72 hrs in presence of TMZ by MTT assay
Format: functional, cell-based
Conditions: dose 5-10 µM

With `CC[C@@H]1CN(C(=O)c2cc(Cn3c(=O)[nH]c(=O)c4ccccc43)ccc2F)CCN1CC` the Activity was “Active”.

— ChEMBL document CHEMBL5053536, “Discovery of Quinazoline-2,4(1H,3H)-dione Derivatives Containing 3-Substituted Piperizines as Potent PARP-1/2 Inhibitors─Design, Synthesis, In Vivo Antitumor Activity, and X-ray Crystal Structure Analysis” (J Med Chem, 2021)
